Measurements taken from patent US9708286B2, “Ingenol-3-acylates III and ingenol-3-carbamates” (LEO Laboratories Limited, priority 2010, dated 2017).
Read-outs that look alike come from different tables or passages of the source.

Legend:
Format in all cases: cell-based
[1] = system: Primary human epidermal keratinocytes, HeKa; test: HeKa cytokine release (IL-8); details: Homo sapiens, read-out: HeKa cytokine release (IL-8) Rel EC50 range
Experimental: Primary human epidermal keratinocytes, HeKa, were seeded (10.000 cells/well) in 96-well plates the day before the assay. Test compounds were diluted in DMSO (dimethyl sulfoxide) and further diluted in assay medium and pipetted into wells of 96 well-plates containing HeKa cells. The plates were incubated for 6 h at 37° C. in humidified air with 5% CO2. Plates were centrifuged briefly to spin down cells at 4° C., the supernatant was removed and analysed by Meso Scale Discovery (MSD) 4-spot cytokine assay (Pro-inflammatory II Ultra Sensitive kit, MSD, MD, USA). The MSD assay employs a sandwich immunoassay format where capture antibodies are coated in a patterned array on the bottom of the wells of a 4-Spot-Multi-MSD plate. Standard samples were incubated in the MULTI-SPOT plates as well, and the cytokine (IL-8) binds to its corresponding capture antibody spot. The cytokine level was quantitated on a SECTOR™ Imager using a cytokine-specific Detection Antibody labelled with MSD SULFO-TAG™ reagent.
(§1) Test compound titration curves were fitted to a four-parameter sigmoidal curve after normalizing the effect of the test compound to the effect of the positive control (1.5×10^−7 M PEP0005). Rel EC50 denotes the concentration of test compound producing an effect that is midway between the fitted top and bottom.

[2] = system: PMN's (polymorphonuclear leukocytes); test: Neutrophil oxidative burst; details: Leukocyte, 40 min, normalized to 5×10^−7 M PEP0005
Experimental: PMN's (polymorphonuclear leukocytes) were isolated and purified from fresh buffy coats by sequential sedimentation, density centrifugation and lysis of contaminating erythrocytes. Buffy coats were incubated with 2% methocel for 30-45 min to differentially sediment red blood cells. The leukocyte-rich supernatant was transferred to lymphoprep tubes to remove mononuclear cells by density centrifugation (400×g, 30 min). The pellet was resuspended and any remaining erythrocytes lysed using 0.2% NaCl for 30 sec before restoring isotonicity by the addition of 1.2% NaCl. This step was repeated until the cell pellet appears relatively free of red blood cells. Cells were resuspended in DPBS (Dulbecco's Phosphate Buffered Saline) (w.o. Ca^2+, Mg^2+) and the concentration adjusted to 1.4×10^6 cells/ml in HBSS (Hanks Balanced Salt solution) (w Ca^2+, Mg^2±) containing 0.1% BSA (Bovine Serum Albumin) and 5 mM glucose just prior to assay initiation. Titrated reference and test compounds were pre-mixed with HE (Hydroethidine) (10 μM final assay concentration) before addition to 96-well plates containing 2.5×10^5 cells. Following 40 min incubation at RT, changes in the respiratory burst was estimated by measuring fluorescence at 579 nm (excitation: 485 nm) using an Envision plate reader.
as §1, with “(5×10^−7” for “(1.5×10^−7”, “bottom. Abs EC50 is the concentration of test compound that provokes a response corresponding to 50% of the maximal effect associated with the positive control (5×10^−7 M PEP0005).” for “bottom.”

HeLa cells = test: Necrosis assay; details: Homo sapiens, 0.5 h, read-out: HeLa necrosis EC50 range
Experimental: HeLa cells (ATCC CCL-002) were grown in minimal essential medium (Invitrogen catalog no. 42360) containing 10% fetal bovine serum, 100 IU/ml penicillin and 100 μg/ml streptomycin. 4,000-6,000 cells were seeded into 96-well black ViewPlates-plates, clear bottom, (Perkin Elmer) in 100 μl medium and incubated overnight. Compounds were dissolved and pre-diluted in DMSO in 96-well polypropylene plates (Greiner) in a concentration range of 15 μM to 600 μM. At the time of the experiment cell plates were placed on heating blocks at 37° C., medium was removed and 40 μl fresh, pre-warmed medium was added per well. Cells were incubated for 15 min before addition of compounds. In parallel, 3 μl of compounds were diluted with 197 μl growth medium on a Tecan freedom-EVO pipetting station using 250 μl/s pipetting speed, in order to ensure effective mixing of the highly concentrated compound solutions with the aqueous phase. These pre-dilution plates were then equilibrated on heating blocks at 37° C. for 10 min. 80 μl pre-diluted compound were transferred manually to the corresponding wells containing HeLa cells yielding compound concentrations of 10 μM to 400 μM. Control conditions were 1% DMSO in growth medium (100% viability) and 400 μM ingenol mebutate in growth medium (0% viability). Plates were incubated on the heating blocks at 37° C. for 30 min. At the end of the incubation 10 μl PrestoBlue reagent (Invitrogen) were added to each well, plates were sealed with black seal, followed by incubation at 37° C. for 10 min with gentle shaking (150 rpm). Subsequently, plates were placed at room temperature for 20-30 min. Plates were read immediately after on an Envision Fluorescence reader (Perkin Elmer) with excitation at 535 nm and emission at 630 nm. Test compound titration curves were fitted to a four-parameter sigmoidal curve after normalizing the effect of the test compound to the effect of the positive control (4 10^−4 M PEP0005/ingenol mebutate). AbsEC50 denotes the concentration of test compound producing 50% effect.

[3] = read-out: Neutrophil oxidative burst Rel EC50 range, PMN from buffy coats, 40 min at RT, hydroethidine fluorescence

Row | Compound | EC50 ([1]; HEKa, 6 h) [nM] | EC50 [2, 3] [nM] | EC50 (HeLa cells; HeLa) [nM] | EC50 ([1]; HeKa cells, 6 h at 37° C., IL-8 by MSD assay, normalized to 1.5×10^−7 M PEP0005) [nM] | EC50 ([2]; PMN from buffy coats, 40 min at RT, hydroethidine fluorescence, read-out: Neutrophil oxidative burst Rel EC50 range) [nM] | EC50 (HeLa cells; HeLa cells, 30 min at 37° C., PrestoBlue, AbsEC50, normalized to 400 μM ingenol mebutate) [nM]
1 | CC1=C[C@]23C(=O)[C@@H](C=C(CO)[C@@H](O)[C@]2(O)[C@H]1OC(=O)c1ccnn1-c1ccccc1)[C@H]1[C@@H](C[C@H]3C)C1(C)C [Compound 505, Ingenol 3-(2-phenylpyrazole-3-carboxylate)] | < 20 | < 20 | < 150000 | – | – | –
2 | CC1=C[C@]23C(=O)[C@@H](C=C(CO)[C@@H](O)[C@]2(O)[C@H]1OC(=O)c1nn(C)c2ccccc12)[C@H]1[C@@H](C[C@H]3C)C1(C)C [Compound 506, Ingenol 3-(1-methylindazole-3-carboxylate)] | < 20 | < 20 | < 150000 | – | – | –
3 | CCc1noc(C)c1C(=O)O[C@H]1C(C)=C[C@]23C(=O)[C@@H](C=C(CO)[C@@H](O)[C@]12O)[C@H]1[C@@H](C[C@H]3C)C1(C)C [Compound 507, Ingenol 3-(3-ethyl-5-methyl-isoxazole-4-carboxylate)] | < 20 | < 20 | 150000 to 350000 | – | – | –
4 | CC1=C[C@]23C(=O)[C@@H](C=C(CO)[C@@H](O)[C@]2(O)[C@H]1OC(=O)c1c(C)noc1C)[C@H]1[C@@H](C[C@H]3C)C1(C)C [Compound 508, Ingenol 3-(3-methyl-5-methyl-isoxazole-4-carboxylate)] | < 20 | < 20 | 150000 to 350000 | – | – | –
5 | CC1=C[C@]23C(=O)[C@@H](C=C(CO)[C@@H](O)[C@]2(O)[C@H]1OC(=O)c1sccc1-c1ccccc1)[C@H]1[C@@H](C[C@H]3C)C1(C)C [Compound 510, Ingenol 3-(3-phenylthiophene-2-carboxylate)] | < 20 | 20 to 100 | < 150000 | – | – | –
6 | CC1=C[C@]23C(=O)[C@@H](C=C(CO)[C@@H](O)[C@]2(O)[C@H]1OC(=O)c1cnnc2ccccc12)[C@H]1[C@@H](C[C@H]3C)C1(C)C [Compound 514, Ingenol 3-(cinnoline-4-carboxylate)] | > 100 | > 100 | < 150000 | – | – | –
7 | CC1=C[C@]23C(=O)[C@@H](C=C(CO)[C@@H](O)[C@]2(O)[C@H]1OC(=O)c1ncoc1-c1ccccc1)[C@H]1[C@@H](C[C@H]3C)C1(C)C [Compound 516, Ingenol 3-(5-phenyloxazole-4-carboxylate)] | 20 to 100 | < 20 | < 150000 | – | – | –
8 | CC1=C[C@]23C(=O)[C@@H](C=C(CO)[C@@H](O)[C@]2(O)[C@H]1OC(=O)c1noc2ccccc12)[C@H]1[C@@H](C[C@H]3C)C1(C)C [Compound 517, Ingenol 3-(1,2-benzoxazole-3-carboxylate)] | > 100 | 20 to 100 | < 150000 | – | – | –
9 | CC1=C[C@]23C(=O)[C@@H](C=C(CO)[C@@H](O)[C@]2(O)[C@H]1OC(=O)c1c(C(C)C)noc1C)[C@H]1[C@@H](C[C@H]3C)C1(C)C [Compound 518, Ingenol 3-(3-isopropyl-5-methyl-isoxazole-4-carboxylate)] | < 20 | < 20 | < 150000 | – | – | –
10 | COc1ccccc1-c1noc(C)c1C(=O)O[C@H]1C(C)=C[C@]23C(=O)[C@@H](C=C(CO)[C@@H](O)[C@]12O)[C@H]1[C@@H](C[C@H]3C)C1(C)C [Compound 519, Ingenol 3-(3-(2-methoxyphenyl)-5-methyl-isoxazole-4-carboxylate)] | < 20 | < 20 | < 150000 | – | – | –
11 | CC1=C[C@]23C(=O)[C@@H](C=C(CO)[C@@H](O)[C@]2(O)[C@H]1OC(=O)c1c(Cl)cnn1C)[C@H]1[C@@H](C[C@H]3C)C1(C)C [Compound 522, Ingenol 3-(4-chloro-2-methyl-pyrazole-3-carboxylate)] | < 20 | < 20 | 150000 to 350000 | – | – | –
12 | CC1=C[C@]23C(=O)[C@@H](C=C(CO)[C@@H](O)[C@]2(O)[C@H]1OC(=O)c1ncncc1Br)[C@H]1[C@@H](C[C@H]3C)C1(C)C [Compound 523, Ingenol 3-(5-bromopyrimidine-4-carboxylate)] | > 100 | 20 to 100 | > 350000 | – | – | –
13 | CC1=C[C@]23C(=O)[C@@H](C=C(CO)[C@@H](O)[C@]2(O)[C@H]1OC(=O)c1ncsc1C)[C@H]1[C@@H](C[C@H]3C)C1(C)C [Compound 525, Ingenol 3-(5-methylthiazole-4-carboxylate)] | > 100 | 20 to 100 | > 350000 | – | – | –
14 | CC1=C[C@]23C(=O)[C@@H](C=C(CO)[C@@H](O)[C@]2(O)[C@H]1OC(=O)c1nn(C)cc1Cl)[C@H]1[C@@H](C[C@H]3C)C1(C)C [Compound 526, Ingenol 3-(4-chloro-1-methyl-pyrazole-3-carboxylate)] | > 100 | 20 to 100 | > 350000 | – | – | –
15 | CC1=C[C@]23C(=O)[C@@H](C=C(CO)[C@@H](O)[C@]2(O)[C@H]1OC(=O)c1sc(C)nc1C)[C@H]1[C@@H](C[C@H]3C)C1(C)C [Compound 527, Ingenol 3-(2,4-dimethylthiazole-5-carboxylate)] | 20 to 100 | < 20 | 150000 to 350000 | – | – | –
16 | CC1=C[C@]23C(=O)[C@@H](C=C(CO)[C@@H](O)[C@]2(O)[C@H]1OC(=O)c1nc(C)oc1C)[C@H]1[C@@H](C[C@H]3C)C1(C)C [Compound 528, Ingenol 3-(2,5-dimethyloxazole-4-carboxylate)] | > 100 | 20 to 100 | > 350000 | – | – | –
17 | CC1=C[C@]23C(=O)[C@@H](C=C(CO)[C@@H](O)[C@]2(O)[C@H]1OC(=O)c1c(C)coc1C)[C@H]1[C@@H](C[C@H]3C)C1(C)C [Compound 529, Ingenol 3-(2,4-dimethylfuran-3-carboxylate)] | < 20 | < 20 | < 150000 | – | – | –
18 | CCc1noc(CC)c1C(=O)O[C@H]1C(C)=C[C@]23C(=O)[C@@H](C=C(CO)[C@@H](O)[C@]12O)[C@H]1[C@@H](C[C@H]3C)C1(C)C [Compound 530, Ingenol 3-(3,5-diethylisoxazole-4-carboxylate)] | – | – | – | < 20 | < 20 | < 150000
